Results: patent USRE30633E, “3-Lower alkylcarbamylsulfonamido-4-phenylaminopyridines, n-oxides, derivatives thereof and pharmaceutical compositions containing same” (A. Christiaens Societe Anonyme, priority 1974, dated 1981)

How the values were obtained:
paw of rats = experiment: Pharmacological test for anti-inflammatory properties (carrageenan rat paw swelling); type: in vivo; conditions: oral 1 hour before carrageenan (0.05 ml of 1%), swelling 4 hours after injection by plethysmography, dose not given
Procedure: 1. Pharmacological test for anti-inflammatory properties.
The compounds to be tested are given as freshly prepared solutions or suspensions by oral route 1 hour before injecting the paw of rats with carrageenan which is a known inflammatory agent.
The inflammatory agent (carrageenan) either in solution or suspension is then injected into the plantar tissue of the right hind paw of each rat, the left paw remaining untreated and serving as control. Each animal receives, for example, 0.05 ml of an aqueous solution containing 1% by weight of carrageenan and 0.9% of sodium chloride.
4 hours after the injection of the inflammatory agent, the importance of swelling is determined by plethysmography and is expressed as a percent of the volume of the control paw.
The anti-inflammatory effect expressed as a percentage of inhibition is obtained by comparison between rats treated with the anti-inflammatory compound and a control group of rats.

rats = experiment: Pharmacological test for diuretic properties (urine volume); type: in vivo; conditions: 50 mg/kg gastric gavage, 25 ml/kg saline s.c., urine collected 4 hours, ml/kg of body weight
Procedure: 2. Pharmacological tests for diuretic properties Lots of 3 rats weighting 250-300 g have been constituted at random, each of them being submitted to the same treatment. The compound to be tested was administered by .[.gastric gavage at a dose of 50 ml/kg as a solution or a.]. .Iadd.gastric gavage at a dose of 50 mg/kg as a solution or a .[…].suspension in water containing 0.45% of methylcellulose (which is an inert mucilaginous substance). Control animals received only distilled water as a placebo. At the same time, all the animals received 25 ml/kg of physiological saline by subcutaneous injection. The rats were then placed in metabolic cages, each cage containing 3 animals receiving the same treatment. The urines have been collected during 4 hours. […] The diuresis is expressed in ml/kg of body weight.

Compound: CC(C)NC(=O)NS(=O)(=O)c1cnccc1NC(C)C [JDL 482, 3-isopropylcarbamylsulfonamido-4-isopropylaminopyridine]
- % inhibition of acute oedema (paw of rats): 0%
- Diuresis (rats): 25.3 mL/kg

Compound: O=C(NC1CCCCC1)NS(=O)(=O)c1cnccc1Nc1ccc(Cl)cc1 [JDL 426, 3-cyclohexylcarbamylsulfonamido-4-(4'-chloro)-phenylaminopyridine]
- % inhibition of acute oedema (paw of rats): 73.6%
- Diuresis (rats): 22.0 mL/kg

Compound: CNC(=O)NS(=O)(=O)c1cnccc1Nc1cccc(C(F)(F)F)c1 [JDL 378, 3-methylcarbamylsulfonamido-4-(3'-trifluoromethyl)-phenylaminopyridine]
- % inhibition of acute oedema (paw of rats): 74.4%
- Diuresis (rats): 84.0 mL/kg

Compound: Cc1cccc(Nc2ccncc2S(=O)(=O)NC(=O)NC(C)C)c1 [JDL 464, 3-isopropylcarbamylsulfonamido-4-(3'-methyl)-phenylaminopyridine]
- % inhibition of acute oedema (paw of rats): 76.8%
- Diuresis (rats): 81.6 mL/kg

Compound: CCNC(=O)NS(=O)(=O)c1cnccc1Nc1cccc(CC)c1 [JDL 511, 3-ethylcarbamylsulfonamido-4-(3'-ethyl)-phenylaminopyridine]
- % inhibition of acute oedema (paw of rats): 72.0%
- Diuresis (rats): 66.4 mL/kg

Compound: 3-isopropylcarbamylsulfonamido-4-isopropylaminopyridine [JDL 363]
- % inhibition of acute oedema (paw of rats): 63.2%
- Diuresis (rats): 40.1 mL/kg

Compound: CC(C)(C)NC(=O)NS(=O)(=O)c1cnccc1Nc1ccc(Cl)cc1 [JDL 425, 3-tertiobutylcarbamylsulfonamido-4-(4'-chloro)-phenylaminopyridine]
- % inhibition of acute oedema (paw of rats): 42.4%
- Diuresis (rats): 37.7 mL/kg

Compound: CCCCNC(=O)NS(=O)(=O)c1cnccc1NCc1ccco1 [JDL 485, 3-butylcarbamylsufonamido-4-methyl-furylaminopyridine]
- % inhibition of acute oedema (paw of rats): 15.2%
- Diuresis (rats): 51.3 mL/kg

Compound: NS(=O)(=O)c1cnccc1NCc1ccco1 [JDL 181, 3-sulfonamido-4-methylfurylamino-pyridine]
- % inhibition of acute oedema (paw of rats): 21.6%
- Diuresis (rats): 14.8 mL/kg

Compound: CNC(=O)NS(=O)(=O)c1cnccc1Nc1cccc([N+](=O)[O-])c1 [JDL 504, 3-methylcarbamylsulfonamido-4-(3'-nitro)-phenylaminopyridine]
- % inhibition of acute oedema (paw of rats): 43.0%
- Diuresis (rats): 17.2 mL/kg
